# Source: patent US20230174584A1, “Antibiotic Compounds” (priority 2019, published 2023)
# Legend:
# E. faecium E0072 = assay: MIC assay; type: cell-based, Enterococcus faecium; conditions: E. faecium E0072, VanA
# Experimental: (§1) The antibacterial activity of the compounds was tested against a panel of bacteria, including Gram-positive bacteria (S. aureus ATCC29213, S. aureus USA300, S. aureus LIM-2, NR-45881, S. aureus HIP13419, NR-46413, E. faecium E155, E. faecium E7314, E. faecium E980, E. faecalis E1246, E. faecalis E7406 and S. pneumonia 153). The antibacterial activity of the compounds was further tested against S. aureus NY-155, NR-46236, S. aureus HIP12864, NR-46074, S. aureus 880 (BR-VRSA), NR-49120, E. faecalis E1246, E. faecalis E7604, as well as some Gram-negative bacteria (Escherichia coli and Klebsiella pneumoniae). Minimum inhibitory concentrations (MICs) in μg/mL were performed according to the CLSI guidelines. From glycerol stocks, bacterial strains were cultured on blood agar plates and incubated at 37° C. for 18 h. A single colony was transferred to tryptic soy broth (TSB) with 0.002% polysorbate 80 (p80). For the Enterococcus, VISA and VRSA strains, the cultures were grown at 37° C. until the optical density of the suspension reached a level equivalent to the 0.5 McFarland standard. The bacterial suspensions were diluted in TSB with 0.002% p80 to reach a bacterial cell density of 10^6 CFU/mL. In case of the other (vancomycin-sensitive) S. aureus strains, the direct colony suspension method was used. For these strains, after transfer of the colonies to TSB with 0.002% p80, they were immediately diluted to 10^6 CFU/mL, instead of incubated prior to this dilution. In the case of S. pneumonia, direct colony suspension was used by immediately suspending multiple colonies from fresh blood agar plates in TSB+0.002% p80 to an OD600 of 0.5 and subsequent dilution to 10^6 CFU mL^−1 in TSB+0.002% p80+5% lysed horse blood. Antibiotic dilutions for this strains were also made in TSB+0.002% p80+5% lysed horse blood. Both agar and microplates containing S. pneumonia were incubated at 37° C. with 5% CO2 for 24 h with constant shaking (600 rpm). […] The cultures were grown to exponential phase (OD600=0.5) at 37° C. […] In polypropylene 96-well microtiter plates, test compounds were added in biological triplicates and serial diluted 2-fold by transfer and mixing from one well to the next to achieve a final volume of 50 μL per well. An equal volume of bacterial suspension (10^6 CFU mL^−1) was added to the wells. The plates were sealed with breathable membranes and incubated at 37° C. for 24 h with constant shaking (600 rpm). In polypropylene microtiter plates, 100 μL of the test compounds was added to the first row in biological triplicates, and 50 μL of media was added to the other wells. The compounds were subjected to serial dilution by transfer and mixing of 50 μL from one well to the next. Subsequently, 50 μL of bacterial suspension (10^6 CFU/mL) was added to the wells. The plates were sealed with breathable membranes and incubated at 37° C. for 24 h with constant shaking (600 rpm). Positive growth control consisted of wells with bacterial suspension and without antibiotic. Negative growth control consisted of solely media without bacterial suspension or antibiotic. The MICs were determined from the median of a minimum of triplicates.
# E. faecium E0745 = assay: MIC assay; type: cell-based, Enterococcus faecium; conditions: E. faecium E0745, VanA
# Experimental: as §1
# E. faecium E2365 = assay: MIC assay; type: cell-based, Enterococcus faecium; conditions: E. faecium E2365, VanB
# Experimental: as §1
# E. faecalis E1246 = assay: MIC assay; type: cell-based, Enterococcus faecalis
# Experimental: as §1
# [1] = system: Escherichia coli ATCC 25922; assay: MIC assay; type: cell-based
# Experimental: as §1
# [2] = system: Escherichia coli ATCC 35218; assay: MIC assay; type: cell-based
# Experimental: as §1
# Escherichia coli W3110 = assay: MIC assay; type: cell-based
# Experimental: as §1
# [3] = system: Klebsiella pneumoniae ATCC 13883; assay: MIC assay; type: cell-based
# Experimental: as §1
# [4] = system: Klebsiella pneumoniae ATCC 27736; assay: MIC assay; type: cell-based
# Experimental: as §1
# [5] = system: Klebsiella pneumoniae JS265; assay: MIC assay; type: cell-based
# Experimental: as §1
# S. pneumoniae 153 = assay: MIC assay; type: cell-based
# Experimental: as §1
# E. faecium E0341 = assay: MIC assay; type: cell-based, Enterococcus faecium; conditions: E. faecium E0341, VanA
# E. faecium E2359 = assay: MIC assay; type: cell-based, Enterococcus faecium; conditions: E. faecium E2359, VanB
# E. faecium E7312 = assay: MIC assay; type: cell-based, Enterococcus faecium; conditions: E. faecium E7312, VanA
# S. aureus ATCC29123 = assay: Lipid II antagonization assay; type: cell-based, Staphylococcus aureus; conditions: for visible bacterial growth with lipid II / visible bacterial growth without lipid II: 8×MIC of test compound, 24 h; for visible bacterial growth with lipid II: 5-fold molar excess of lipid II; for bacterial growth after co-incubation with lipid II: 8×MIC; for visible bacterial growth with lipid II: key: − means no visible growth; + means visible growth; for visible bacterial growth without lipid II: key: − means no visible growth; + means visible growth
# Experimental: Lipid II in chloroform was added in the appropriate amount (5-fold molar excess compared to test antibiotics) to a 96-well plate and the chloroform was allowed to evaporate. […] Of these dilutions, 50 μL was mixed with the 5-fold molar excess of pure lipid II in triplicates in the plate as well as added to the plate in triplicates without lipid II present. S. aureus ATCC29123 colonies were suspended in TSB with 0.002% p80 by direct colony suspension to an optical density that reached a level equivalent to the 0.5 McFarlan standard. […] The samples were incubated at 37° C. for 24 h with constant shaking (600 rpm) and inspected for visible bacterial growth. Positive growth control consisted of wells with bacterial suspension and without antibiotic or lipid II. Negative growth control consisted of solely media without bacterial suspension, antibiotic or lipid II.
# In the antagonization assay, lipid II is co-incubated with the test antibiotics in the presence of bacterial culture. When lipid II binds the glycopeptides, the binding of these antibiotics to their target in the growing bacterial culture is antagonized. This ultimately results in diminished activity of the antibiotics and bacterial growth which normally would not be visible (at 8×MIC) becomes visible. Therefore, this assay could be used to determine if part of the mechanism of action of our compounds involves binding to lipid II.
# [6] = E. faecalis E1246 VRE (VanA), Table 7
# [7] = E. faecalis E1246 VRE (vanA), Table 9
# [8] = S. pneumoniae 153, TSB+0.002% p80+5% lysed horse blood
structure (smiles),measurement,setting,value
CCCCCCCNC(N)=Nc1ccc(CN[C@@]2(C)C[C@H](O[C@H]3[C@H](Oc4c5cc6cc4Oc4ccc(cc4Cl)[C@@H](O)[C@@H](NC(=O)[C@@H](CC(C)C)NC)C(=O)N[C@@H](CC(N)=O)C(=O)N[C@H]6C(=O)N[C@H]4C(=O)N[C@H](C(=O)N[C@H](C(=O)O)c6cc(O)cc(O)c6-c6cc4ccc6O)[C@H](O)c4ccc(c(Cl)c4)O5)O[C@H](CO)[C@@H](O)[C@@H]3O)O[C@@H](C)[C@H]2O)cc1 [Compound 5],MIC,E. faecium E0072,0.25 µg/mL
same,MIC,E. faecium E0745,1 µg/mL
same,MIC,E. faecium E2365,≤0.008 µg/mL
same,MIC,E. faecalis E1246; [6],16 µg/mL
same,MIC,E. faecalis E1246; [7],16 µg/mL
same,MIC,[1],>128 µg/mL
same,MIC,[2],>128 µg/mL
same,MIC,Escherichia coli W3110,>128 µg/mL
same,MIC,[3],>128 µg/mL
same,MIC,[4],>128 µg/mL
same,MIC,[5],>128 µg/mL
same,MIC,S. pneumoniae 153; [8],≤0.008 µg/mL
same,MIC,E. faecium E0341,8 µg/mL
same,MIC,E. faecium E2359,≤0.008 µg/mL
same,MIC,E. faecium E7312,0.25 µg/mL
same,visible bacterial growth with lipid II,S. aureus ATCC29123,+
same,visible bacterial growth without lipid II,S. aureus ATCC29123,−
same,bacterial growth after co-incubation with lipid II,S. aureus ATCC29123,Bacterial growth was visible
CCCCCCCCNC(N)=Nc1ccc(CN[C@@]2(C)C[C@H](O[C@H]3[C@H](Oc4c5cc6cc4Oc4ccc(cc4Cl)[C@@H](O)[C@@H](NC(=O)[C@@H](CC(C)C)NC)C(=O)N[C@@H](CC(N)=O)C(=O)N[C@H]6C(=O)N[C@H]4C(=O)N[C@H](C(=O)N[C@H](C(=O)O)c6cc(O)cc(O)c6-c6cc4ccc6O)[C@H](O)c4ccc(c(Cl)c4)O5)O[C@H](CO)[C@@H](O)[C@@H]3O)O[C@@H](C)[C@H]2O)cc1 [Compound 6],MIC,E. faecium E0072,0.5 µg/mL
same,MIC,E. faecium E0745,0.25 µg/mL
same,MIC,E. faecium E2365,≤0.008 µg/mL
same,MIC,E. faecalis E1246; [6],8 µg/mL
same,MIC,E. faecalis E1246; [7],8 µg/mL
same,MIC,[1],>128 µg/mL
same,MIC,[2],>128 µg/mL
same,MIC,Escherichia coli W3110,>128 µg/mL
same,MIC,[3],>128 µg/mL
same,MIC,[4],>128 µg/mL
same,MIC,[5],>128 µg/mL
same,MIC,S. pneumoniae 153; [8],≤0.008 µg/mL
same,MIC,E. faecium E0341,4 µg/mL
same,MIC,E. faecium E2359,≤0.008 µg/mL
same,MIC,E. faecium E7312,0.063 µg/mL
same,visible bacterial growth with lipid II,S. aureus ATCC29123,+
same,visible bacterial growth without lipid II,S. aureus ATCC29123,−
same,bacterial growth after co-incubation with lipid II,S. aureus ATCC29123,Bacterial growth was visible
CCCCCCCCCNC(N)=Nc1ccc(CN[C@@]2(C)C[C@H](O[C@H]3[C@H](Oc4c5cc6cc4Oc4ccc(cc4Cl)[C@@H](O)[C@@H](NC(=O)[C@@H](CC(C)C)NC)C(=O)N[C@@H](CC(N)=O)C(=O)N[C@H]6C(=O)N[C@H]4C(=O)N[C@H](C(=O)N[C@H](C(=O)O)c6cc(O)cc(O)c6-c6cc4ccc6O)[C@H](O)c4ccc(c(Cl)c4)O5)O[C@H](CO)[C@@H](O)[C@@H]3O)O[C@@H](C)[C@H]2O)cc1 [Compound 7],MIC,E. faecium E0072,0.125 µg/mL
same,MIC,E. faecium E0745,0.125 µg/mL
same,MIC,E. faecium E2365,≤0.008 µg/mL
same,MIC,E. faecalis E1246; [6],2 µg/mL
same,MIC,E. faecalis E1246; [7],2 µg/mL
same,MIC,[1],>128 µg/mL
same,MIC,[2],>128 µg/mL
same,MIC,Escherichia coli W3110,>128 µg/mL
same,MIC,[3],>128 µg/mL
same,MIC,[4],>128 µg/mL
same,MIC,[5],>128 µg/mL
same,MIC,S. pneumoniae 153; [8],≤0.008 µg/mL
same,MIC,E. faecium E0341,1 µg/mL
same,MIC,E. faecium E2359,≤0.008 µg/mL
same,MIC,E. faecium E7312,0.031 µg/mL
same,visible bacterial growth with lipid II,S. aureus ATCC29123,+
same,visible bacterial growth without lipid II,S. aureus ATCC29123,−
same,bacterial growth after co-incubation with lipid II,S. aureus ATCC29123,Bacterial growth was visible
CCCCCCN(CCCCCC)C(N)=Nc1ccc(CN[C@@]2(C)C[C@H](O[C@H]3[C@H](Oc4c5cc6cc4Oc4ccc(cc4Cl)[C@@H](O)[C@@H](NC(=O)[C@@H](CC(C)C)NC)C(=O)N[C@@H](CC(N)=O)C(=O)N[C@H]6C(=O)N[C@H]4C(=O)N[C@H](C(=O)N[C@H](C(=O)O)c6cc(O)cc(O)c6-c6cc4ccc6O)[C@H](O)c4ccc(c(Cl)c4)O5)O[C@H](CO)[C@@H](O)[C@@H]3O)O[C@@H](C)[C@H]2O)cc1 [Compound 12],MIC,E. faecium E0072,0.25 µg/mL
same,MIC,E. faecium E0745,0.25 µg/mL
same,MIC,E. faecium E2365,≤0.008 µg/mL
same,MIC,E. faecalis E1246; [6],8 µg/mL
same,MIC,E. faecalis E1246; [7],8 µg/mL
same,MIC,[1],>128 µg/mL
same,MIC,[2],>128 µg/mL
same,MIC,Escherichia coli W3110,>128 µg/mL
same,MIC,[3],>128 µg/mL
same,MIC,[4],>128 µg/mL
same,MIC,[5],>128 µg/mL
same,MIC,S. pneumoniae 153; [8],≤0.008 µg/mL
same,MIC,E. faecium E0341,2 µg/mL
same,MIC,E. faecium E2359,≤0.008 µg/mL
same,MIC,E. faecium E7312,0.125 µg/mL
CN[C@H](CC(C)C)C(=O)N[C@H]1C(=O)N[C@@H](CC(N)=O)C(=O)N[C@H]2C(=O)N[C@H]3C(=O)N[C@H](C(=O)N[C@H](C(=O)O)c4cc(O)cc(O)c4-c4cc3ccc4O)[C@H](O[C@H]3C[C@](C)(N)[C@@H](O)[C@H](C)O3)c3ccc(c(Cl)c3)Oc3cc2cc(c3O[C@@H]2O[C@H](CO)[C@@H](O)[C@H](O)[C@H]2O[C@H]2C[C@](C)(NCc3ccc(-c4ccc(Cl)cc4)cc3)[C@@H](O)[C@H](C)O2)Oc2ccc(cc2Cl)[C@H]1O [Oritavancin],MIC,E. faecalis E1246; [7],1 µg/mL
same,MIC,"E. faecalis E1246; Enterococcus faecalis, VRE",1 µg/mL
same,MIC,"S. pneumoniae 153; Streptococcus pneumoniae, 153",≤ 0.008 µg/mL
